According to patent publication US8461083B2, “Herbicidal compounds” (Syngenta Limited, priority 2008, dated 2013):

Key:
[1] = test system: Alopecurus myosuroides (ALOMY); assay: Post-emergence herbicidal glasshouse test; assay type: in vivo; settings: post-emergence (sprayed after 8 days cultivation), evaluated after 13 days, 100=total damage to plant, 0=no damage to plant; for pest or weed control at 1000 g/ha: Alopecurus myosuroides, 312 h, read-out: POST Application ALOMY, damage to plant; for POST Application ALOMY, damage to plant: 1000 g/ha
Procedure, shortened: (§1)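 Spray at 1000 g/ha, acetone/water 50:50 + 0.5% Tween 20; pre-em 1 d post-sowing, post-em 8 d post-sowing. Glasshouse 24/16 °C, 14 h light, 65% RH, watered twice daily. Visual damage score 0–100 at 13 d.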

[2] = test system: Amaranthus retoflexus (AMARE); assay: Post-emergence herbicidal glasshouse test; assay type: in vivo; settings: post-emergence (sprayed after 8 days cultivation), evaluated after 13 days, 100=total damage to plant, 0=no damage to plant; for pest or weed control at 1000 g/ha: Amaranthus retroflexus, 312 h, read-out: POST Application AMARE, damage to plant; for POST Application AMARE, damage to plant: 1000 g/ha
Procedure, shortened: as §1

Setaria faberi (SETFA) [3] = assay: Post-emergence herbicidal glasshouse test; assay type: in vivo; settings: post-emergence (sprayed after 8 days cultivation), evaluated after 13 days, 100=total damage to plant, 0=no damage to plant; for pest or weed control at 1000 g/ha: Setaria faberi, 312 h, read-out: POST Application SETFA, damage to plant; for POST Application SETFA, damage to plant: 1000 g/ha
Procedure, shortened: as §1

Solanum nigrum (SOLNI) [4] = assay: Post-emergence herbicidal glasshouse test; assay type: in vivo; settings: post-emergence (sprayed after 8 days cultivation), evaluated after 13 days, 100=total damage to plant, 0=no damage to plant; for pest or weed control at 1000 g/ha: Solanum nigrum, 312 h, read-out: POST Application SOLNI, damage to plant; for POST Application SOLNI, damage to plant: 1000 g/ha
Procedure, shortened: as §1

[5] = test system: Echinochloa crus-galli (ECHCG); assay: Post-emergence herbicidal glasshouse test; assay type: in vivo; settings: post-emergence (sprayed after 8 days cultivation), evaluated after 13 days, 100=total damage to plant, 0=no damage to plant; for pest or weed control at 1000 g/ha: Echinochloa crus-galli, 312 h, read-out: POST Application ECHCG, damage to plant; for POST Application ECHCG, damage to plant: 1000 g/ha
Procedure, shortened: (§2)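 Rates of 1000 g/ha are applied as an acetone/water (50:50) spray with 0.5% Tween 20 to soil-sown pots, pre-emergence at day 1 or post-emergence at day 8. Percent damage is assessed after 13 days.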

[6] = test system: Alopecurus myosuroides (ALOMY); assay: Pre-emergence herbicidal glasshouse test; assay type: in vivo; settings: pre-emergence (sprayed after one day cultivation), evaluated after 13 days, 100=total damage to plant, 0=no damage to plant; for pest or weed control at 1000 g/ha: Alopecurus myosuroides, 312 h, read-out: PRE Application ALOMY, damage to plant; for PRE Application ALOMY, damage to plant: 1000 g/ha
Procedure, shortened: as §1

Setaria faberi (SETFA) [7] = assay: Pre-emergence herbicidal glasshouse test; assay type: in vivo; settings: pre-emergence (sprayed after one day cultivation), evaluated after 13 days, 100=total damage to plant, 0=no damage to plant; for pest or weed control at 1000 g/ha: Setaria faberi, 312 h, read-out: PRE Application SETFA, damage to plant; for PRE Application SETFA, damage to plant: 1000 g/ha
Procedure, shortened: as §1

Solanum nigrum (SOLNI) [8] = assay: Pre-emergence herbicidal glasshouse test; assay type: in vivo; settings: pre-emergence (sprayed after one day cultivation), evaluated after 13 days, 100=total damage to plant, 0=no damage to plant; for pest or weed control at 1000 g/ha: Solanum nigrum, 312 h, read-out: PRE Application SOLNI, damage to plant; for PRE Application SOLNI, damage to plant: 1000 g/ha
Procedure, shortened: as §1

[9] = test system: Echinochloa crus-galli (ECHCG); assay: Pre-emergence herbicidal glasshouse test; assay type: in vivo; settings: pre-emergence (sprayed after one day cultivation), evaluated after 13 days, 100=total damage to plant, 0=no damage to plant; for pest or weed control at 1000 g/ha: Echinochloa crus-galli, 312 h, read-out: PRE Application ECHCG, damage to plant; for PRE Application ECHCG, damage to plant: 1000 g/ha
Procedure, shortened: as §2

[10] = test system: Amaranthus retoflexus (AMARE); assay: Pre-emergence herbicidal glasshouse test; assay type: in vivo; settings: pre-emergence (sprayed after one day cultivation), evaluated after 13 days, 100=total damage to plant, 0=no damage to plant; for PRE Application AMARE, damage to plant: 1000 g/ha; for pest or weed control at 1000 g/ha: Amaranthus retroflexus, 312 h, read-out: PRE Application AMARE, damage to plant
Procedure, shortened: as §1

SMILES | pest or weed control at 1000 g/ha [1] [%] | pest or weed control at 1000 g/ha [2] [%] | pest or weed control at 1000 g/ha (Setaria faberi (SETFA) [3]) [%] | pest or weed control at 1000 g/ha (Solanum nigrum (SOLNI) [4]) [%] | pest or weed control at 1000 g/ha [5] [%] | pest or weed control at 1000 g/ha [6] [%] | pest or weed control at 1000 g/ha (Setaria faberi (SETFA) [7]) [%] | pest or weed control at 1000 g/ha (Solanum nigrum (SOLNI) [8]) [%] | pest or weed control at 1000 g/ha [9] [%] | POST Application ALOMY, damage to plant [1] | POST Application AMARE, damage to plant [2] | POST Application SETFA, damage to plant (Setaria faberi (SETFA) [3]) | POST Application SOLNI, damage to plant (Solanum nigrum (SOLNI) [4]) | POST Application ECHCG, damage to plant [5] | PRE Application ALOMY, damage to plant [6] | PRE Application AMARE, damage to plant [10] | PRE Application SETFA, damage to plant (Setaria faberi (SETFA) [7]) | PRE Application SOLNI, damage to plant (Solanum nigrum (SOLNI) [8]) | PRE Application ECHCG, damage to plant [9] | further results
COCC(F)(F)c1nc2nc(C)c(F)cc2cc1C(=O)C1C(=O)C2CCC(C2)C1=O (centres unmarked) [Compound 3.13, 3-[6-fluoro-2-(2-methoxy-1,1-difluoroethyl)-7-methyl [1,8]-naphthyridine-3-carbonyl]-bicyclo[3.2.1]octane-2,4-dione] | 40 | 70 | 80 | 70 | 80 | 10 | 80 | 80 | 100 | – | – | – | – | – | – | – | – | – | – | melting point: 177 to 180 °C
CC(C)(C)C(=O)Cn1c(=O)ccc2cc(C(=O)C3C(=O)CCCC3=O)c(C(F)(F)F)nc21 [Compound 2.7, 2-{8-(3,3-dimethyl-2-oxo-butyl)-7-oxo-7,8-dihydro-2-trifluoromethyl-[1,8]-naphthyridine-3-carbony}-cyclohexane-1,3-dione] | – | – | – | – | – | – | – | – | – | 40 | 70 | 70 | 100 | 70 | 30 | 60 | 40 | 100 | 80 | –
Cc1nc2nc(C(F)(F)Cl)c(C(=O)C3C(=O)CCCC3=O)cc2cc1F [Compound 1.87, 2-(2-chlorodifluoromethyl-6-fluoro-7-methyl-[1,8]-naphthyridine-3-carbonyl)-cyclohexane-1,3-dione] | – | – | – | – | – | – | – | – | – | 70 | 80 | 80 | 90 | 90 | 60 | 100 | 100 | 100 | 100 | –
COCc1nc2ncc(F)cc2cc1C(=O)C1C(=O)CCCC1=O [Compound 1.74, 2-[6-fluoro-2-methoxymethyl-[1,8]-naphthyridine-3-carbony]-cyclohexane-1,3-dione] | – | – | – | – | – | – | – | – | – | 40 | 90 | 80 | 80 | 80 | 70 | 100 | 100 | 100 | 100 | –
CNc1nc2nc(C(F)(F)F)c(C(=O)C3C(=O)CCCC3=O)cc2cc1F [Compound 1.98, 2-[6-fluoro-7-methylamino-2-trifluoromethyl-[1,8]-naphthyridine-3-carbony]-cyclohexane-1,3-dione] | 70 | 90 | 80 | 40 | 80 | 20 | 100 | 100 | 100 | – | – | – | – | – | – | – | – | – | – | pest or weed control at 1000 g/ha [10]: 100%
COCCn1c(=O)ccc2cc(C(=O)C3C(=O)CCCC3=O)c(C(F)(F)F)nc21 [Compound 2.22, 2-{8-(2-Methoxyethyl)-7-oxo-7,8-dihydro-2-trifluoromethyl-[1,8]-naphthyridine-3-carbony}-cyclohexane-1,3-dione] | – | – | – | – | – | – | – | – | – | 80 | 80 | 80 | 90 | 80 | 100 | 100 | 100 | 100 | 100 | –
CC(F)c1ccc2cc(C(=O)C3C(=O)CCCC3=O)c(C(F)(F)F)nc2n1 (centres unmarked) [Compound 1.35, 2-[7-(1-fluoroethyl)-2-trifluoromethyl-[1,8]-naphthyridine-3-carbony]-cyclohexane-1,3-dione] | – | – | – | – | – | – | – | – | – | 90 | 100 | 90 | 90 | 90 | 70 | 100 | 100 | 100 | 100 | –
Cc1nc2nc(C(F)(F)F)c(C(=O)C3C(=O)C(C)(C)OC(C)(C)C3=O)cc2cc1F [Compound 5.2] | 70 | 90 | 80 | 70 | 80 | 90 | 100 | 100 | 100 | – | – | – | – | – | – | – | – | – | – | pest or weed control at 1000 g/ha [10]: 100%
Cc1nc2nc(C(F)(F)F)c(C(=O)C3C(=O)CCCC3=O)cc2cc1F [Compound 1.41, 2-[6-fluoro-7-methyl-2-trifluoromethyl-[1,8]-naphthyridine-3-carbony]-cyclohexane-1,3-dione] | 90 | 100 | 100 | 90 | 90 | 90 | 100 | 100 | 100 | – | – | – | – | – | – | – | – | – | – | pest or weed control at 1000 g/ha [10]: 100%
O=C1CCCC(=O)C1C(=O)c1cc2ccc(=O)n(Cc3ccccc3)c2nc1C(F)(F)F [Compound 2.20, 2-(8-Benzyl-7-oxo-7,8-dihydro-2-trifluoromethyl-[1,8]-naphthyridine-3-carbony)-cyclohexane-1,3-dione] | – | – | – | – | – | – | – | – | – | 70 | 80 | 70 | 80 | 70 | 100 | 100 | 100 | 100 | 100 | –
CC(F)(F)c1ccc2cc(C(=O)C3C(=O)CCCC3=O)c(C(F)(F)F)nc2n1 [Compound 1.36, 2-[7-(1,1-difluoroethyl)-2-trifluoromethyl-[1,8]-naphthyridine-3-carbony]-cyclohexane-1,3-dione] | – | – | – | – | – | – | – | – | – | 90 | 100 | 90 | 100 | 90 | 70 | 100 | 100 | 100 | 90 | –
